Counter-ions that a name gives are not always drawn.
System: histamine release from rat mast cell
Assay: Inhibitory activity against histamine release from rat mast cell
Assay type: cell-based
Details: 10 μg/ml, read-out: Inhibitory rate against histamine release
Procedure: An anti-dinitrophenylated-ovalbumin (anti DNP-OVA) rat antiserum having 800 of PCA titer in homologous passive cutaneous anaphylaxis reaction in rats for 48 hours was diluted double with physiological saline, and 1 ml of diluted antiserum was injected intraperitoneally into rats to be passively sensitized. On the next day, peritoneal exudation cell (hereinafter referred to as "PEC") was collected. The collected PEC was washed with a medium containing 0.1% BSA, and 1.5×10^5 of the PEC were added to each test tube. AFter incubation at 37° C. for 10 minutes, 50 μl of test compound solution in a same medium was added thereto. After 30 seconds, 50 μl of antigen solution (DVA-OVA 100 μg/ml) was further added thereto to give the total amount of 500 μl of the reaction mixture, and histamine release reaction was induced. After 10 minutes, 1 ml of physiological saline with cooled Tris buffered solution containing 1 mM EDTA were added thereto to stop the reaction. After centrifugation, the amount of histamine in supernatant was determined by fluorescence method according to the method of Shore et al [cf. J. Pharmacol. Exp. Ther., 127, 182 (1959)]. Inhibition rate against histamine release was calculated according to the following equation.
Inhibition rate against histamine release [formula] M: Amount of histamine in supernatant under addition of antigen and non-addition of test compound
S: Amount of histamine in supernatant under addition of antigen and test compound
B: Amount of histamine in supernatant under non-addition of antigen and test compound.
The test compound was used in a concentration of 10 μg/ml.

Structure (SMILES): O=c1c(-c2nn[nH]n2)c2cccccc-2n1Cc1ccc(O)cc1 [Example 40]
- inhibition at 10 µg/mL: 93.5%

Structure (SMILES): CC(C)c1cccc2c(-c3nn[nH]n3)c(=O)n(CCc3ccccc3)c-2c1 [Example 27]
- inhibition at 10 µg/mL: 89.6%

Structure (SMILES): N#Cc1c2cccccc-2nc1NC(CO)C(=O)O (centres unmarked) [Example 72]
- inhibition at 10 µg/mL: 22.5%

Structure (SMILES): O=c1c(-c2nn[nH]n2)c2cccccc-2n1Cc1ccc(Cl)cc1Cl [Example 45]
- inhibition at 10 µg/mL: 19.3%

Structure (SMILES): CC(C)c1cccc2c(C#N)c(NCC(=O)O)nc-2c1 [Example 79]
- inhibition at 10 µg/mL: 85.8%

Structure (SMILES): CCOC(=O)c1ccc(Nc2nc3cccccc-3c2C#N)cc1 [Example 66]
- inhibition at 10 µg/mL: 20.5%

Structure (SMILES): Cn1c2cccccc-2c(-c2nnn[nH]2)c1=O [Example 15]
- inhibition at 10 µg/mL: 96.1%

Structure (SMILES): CC(C)c1cccc2n(CCc3ccc(O)c(O)c3)c(=O)c(-c3nnn[nH]3)c-2c1 [Example 12, 1-(3,4-Dihydroxyphenylethyl)-5-iso-propyl-3-(5-tetrazolyl)-1-azaazulane-2-one]
- inhibition at 10 µg/mL: 60%

Structure (SMILES): CC(C)c1cccc2c(-c3nn[nH]n3)c(=O)n(Cc3ccc(Cl)cc3)c-2c1 [Example 57]
- inhibition at 10 µg/mL: 89%

Structure (SMILES): N#Cc1c2cccccc-2nc1N1CCN(C(c2ccccc2)c2ccccc2)CC1 [Example 69]
- inhibition at 10 µg/mL: 33.2%

Structure (SMILES): O=c1c(-c2nn[nH]n2)c2cccccc-2n1CCCc1ccccc1 [Example 28]
- inhibition at 10 µg/mL: 92.6%

Structure (SMILES): C=CCn1c2cccccc-2c(-c2nnn[nH]2)c1=O [Example 22]
- inhibition at 10 µg/mL: 84.2%

Structure (SMILES): O=c1c(-c2nnn[nH]2)c2cccccc-2n1Cc1ccc(Cl)cc1 [Example 11, 1-(4-Chlorobenzyl)-3-(5-tetrazolyl)-1-azaazulane-2-one]
- inhibition at 10 µg/mL: 85.8%

Structure (SMILES): O=c1c(-c2nnn[nH]2)c2cccccc-2n1Cc1ccc(F)cc1 [Example 8, 1-(4-Fluorobenzyl)-3-(5-tetrazolyl)-1-azaazulane-2-one]
- inhibition at 10 µg/mL: 89.6%

Structure (SMILES): N#Cc1c2cccccc-2nc1NC(Cc1ccccc1)C(=O)O (centres unmarked) [Example 71]
- inhibition at 10 µg/mL: 8.1%

Structure (SMILES): CCOC(=O)c1ccc(Cn2c3cccccc-3c(-c3nn[nH]n3)c2=O)cc1 [Example 37]
- inhibition at 10 µg/mL: 64.8%

Structure (SMILES): CCOC(=O)C(Cc1ccccc1)Nc1nc2cccccc-2c1C#N (centres unmarked) [Example 70]
- inhibition at 10 µg/mL: 4.2%

Structure (SMILES): O=c1c(-c2nnn[nH]2)c2cccccc-2n1CCC(c1ccccc1)c1ccccc1 [Example 25]
- inhibition at 10 µg/mL: 4.6%

Structure (SMILES): N#Cc1c2cccccc-2nc1N1CCCC1C(=O)O (centres unmarked) [Example 78]
- inhibition at 10 µg/mL: 50.5%

Structure (SMILES): O=c1c(-c2nn[nH]n2)c2cccccc-2n1CC=Cc1ccccc1 [Example 42]
- inhibition at 10 µg/mL: 78.2%

Structure (SMILES): CC(C)c1cccc2n(Cc3cccs3)c(=O)c(-c3nn[nH]n3)c-2c1 [Example 55]
- inhibition at 10 µg/mL: 65.8%

Structure (SMILES): O=c1c(-c2nn[nH]n2)c2cccccc-2n1Cc1cccc(F)c1 [Example 33]
- inhibition at 10 µg/mL: 67.2%

Structure (SMILES): N#Cc1c2cccccc-2nc1N [Example 74]
- inhibition at 10 µg/mL: 64.8%

Structure (SMILES): CCOCCn1c2cccccc-2c(-c2nnn[nH]2)c1=O [Example 23]
- inhibition at 10 µg/mL: 87.2%

Structure (SMILES): CC(C)c1cccc2n(Cc3ccc4ccccc4n3)c(=O)c(-c3nn[nH]n3)c-2c1 [Example 53]
- inhibition at 10 µg/mL: 56.3%

Structure (SMILES): O=c1c(-c2nn[nH]n2)c2cccccc-2n1CCCCl [Example 54]
- inhibition at 10 µg/mL: 55.5%

Structure (SMILES): O=C(Cn1c2cccccc-2c(-c2nn[nH]n2)c1=O)c1ccc(Cl)cc1 [Example 41]
- inhibition at 10 µg/mL: 32.3%

Structure (SMILES): O=c1c(-c2nn[nH]n2)c2cccccc-2n1Cc1ccccc1F [Example 34]
- inhibition at 10 µg/mL: 87.3%

Structure (SMILES): N#Cc1c2cccccc-2nc1Nc1ccc(C(=O)O)cc1 [Example 67]
- inhibition at 10 µg/mL: 57%

Structure (SMILES): COC(=O)C1CCCN1c1nc2cccccc-2c1C#N (centres unmarked) [Example 77]
- inhibition at 10 µg/mL: 35.7%

Structure (SMILES): N#Cc1c2cccccc-2nc1NCC(c1ccccc1)c1ccccc1 [Example 58, 3-Cyano-2-(2,2-diphenylethylamino)-1-azaazulene]
- inhibition at 10 µg/mL: 16.1%

Structure (SMILES): CC(C)n1c2cccccc-2c(-c2nn[nH]n2)c1=O [Example 52]
- inhibition at 10 µg/mL: 81.2%

Structure (SMILES): N#Cc1c2cccccc-2nc1NCCN1CCCC1 [Example 75]
- inhibition at 10 µg/mL: -9.6%

Structure (SMILES): COc1ccccc1N1CCN(c2nc3cccccc-3c2C#N)CC1 [Example 64, 3-Cyano-2-(4-(2-methoxyphenyl)piperazinyl)-1-azaazulene]
- inhibition at 10 µg/mL: -12.2%

Structure (SMILES): N#Cc1c2cccccc-2nc1NC(c1ccccc1)c1ccccc1 [Example 65]
- inhibition at 10 µg/mL: 17.5%

Structure (SMILES): CCCc1c(OCCCn2c3cccc(C(C)C)cc-3c(-c3nn[nH]n3)c2=O)ccc(C(C)=O)c1O [Example 50]
- inhibition at 10 µg/mL: 59.8%

Structure (SMILES): O=c1c(-c2nn[nH]n2)c2cccccc-2n1CCc1ccccc1 [Example 26]
- inhibition at 10 µg/mL: 94.1%

Structure (SMILES): COC(=O)c1ccccc1Nc1nc2cccccc-2c1C#N [Example 68]
- inhibition at 10 µg/mL: 8.9%

Structure (SMILES): CCCCCCn1c2cccccc-2c(-c2nnn[nH]2)c1=O [Example 20]
- inhibition at 10 µg/mL: 91.1%

Structure (SMILES): CC(C)c1cccc2c(C#N)c(N=[N+]=[N-])nc-2c1 [Example 61, 2-Azido-3-cyano-7-isopropyl-1-azaazulene]
- inhibition at 10 µg/mL: 3.8%

Structure (SMILES): CCCCCCCCCCCCCCCCCCn1c2cccccc-2c(-c2nnn[nH]2)c1=O [Example 21]
- inhibition at 10 µg/mL: 10.1%

Structure (SMILES): O=c1c(-c2nn[nH]n2)c2cccccc-2n1CCCCCc1ccccc1 [Example 32]
- inhibition at 10 µg/mL: 1.5%

Structure (SMILES): CC(C)c1cccc2n(Cc3ccc(Cl)cc3)c(=O)c(-c3nn[nH]n3)c-2c1 [Example 56]
- inhibition at 10 µg/mL: 88%

Structure (SMILES): CC(Nc1nc2cccccc-2c1C#N)C(=O)O (centres unmarked) [Example 73]
- inhibition at 10 µg/mL: 60.8%

Structure (SMILES): O=c1[nH]c2cccccc-2c1-c1nnn[nH]1 [Example 14]
- inhibition at 10 µg/mL: 89.6%

Structure (SMILES): N#CCCCn1c2cccccc-2c(-c2nnn[nH]2)c1=O [Example 24]
- inhibition at 10 µg/mL: 86.3%

Structure (SMILES): COc1ccc(Cn2c3cccccc-3c(-c3nn[nH]n3)c2=O)cc1 [Example 39]
- inhibition at 10 µg/mL: 93%

Structure (SMILES): N#Cc1ccc(Cn2c3cccccc-3c(-c3nn[nH]n3)c2=O)cc1 [Example 36]
- inhibition at 10 µg/mL: 43.2%

Structure (SMILES): Cc1cc(C)c(Cn2c3cccccc-3c(-c3nn[nH]n3)c2=O)c(C)c1 [Example 47]
- inhibition at 10 µg/mL: 12.6%

Structure (SMILES): CC(C)c1cccc2nc(N=[N+]=[N-])c(C#N)c-2c1 [Example 76]
- inhibition at 10 µg/mL: 70.5%

Structure (SMILES): N#Cc1c2cccccc-2nc1NCCC(c1ccccc1)c1ccccc1 [Example 59, 3-Cyano-2-(3,3-diphenylpropylamino)-1-azaazulene]
- inhibition at 10 µg/mL: 14%

Structure (SMILES): CC(C)c1cccc2nc(NCC(=O)O)c(C#N)c-2c1 [Example 63, Sodium salt of 2-carboxymethylamino-3-cyano-5-isopropyl-1-azaazulene]
- inhibition at 10 µg/mL: 85.3%

Structure (SMILES): O=c1c(-c2nn[nH]n2)c2cccccc-2n1CCCCc1ccccc1 [Example 31]
- inhibition at 10 µg/mL: 70%
